# Test results reported in patent US20200155687A1, “METHODS OF TREATMENT USING AN A[…]” (Shire Pharmaceuticals Inc., priority 2017, published 2020).
# What was measured:
# α2-adrenergic receptor [1] = experiment: confirmatory half maximal inhibitory concentration (IC50) assay; assay type: binding; settings: after completion of confirmatory IC50 assay
# Protocol: (§1) In a general side-effect profile panel using a wide range of receptors, transporters, ion channels, enzymes and other biological targets that could directly or indirectly influence dopaminergic or noradrenergic neurotransmission in the brain, initial results indicated some 1-homoarginine-d-amphetamine dihydrochloride activity at the α2-adrenergic receptor. However, after completion of a confirmatory half maximal inhibitory concentration (IC50) assay, it was determined that it is unlikely that 1-homoarginine-d-amphetamine dihydrochloride would cause any side-effects related to any of the common enzymes/receptors.
# [2] = target: human recombinant dopamine transporter (Homo sapiens, UniProt Q01959); experiment: in vitro radioligand binding study, dopamine transporter; settings: intact prodrug, up to 10 μM
# Sequence of human recombinant dopamine transporter (Q01959 whole entry): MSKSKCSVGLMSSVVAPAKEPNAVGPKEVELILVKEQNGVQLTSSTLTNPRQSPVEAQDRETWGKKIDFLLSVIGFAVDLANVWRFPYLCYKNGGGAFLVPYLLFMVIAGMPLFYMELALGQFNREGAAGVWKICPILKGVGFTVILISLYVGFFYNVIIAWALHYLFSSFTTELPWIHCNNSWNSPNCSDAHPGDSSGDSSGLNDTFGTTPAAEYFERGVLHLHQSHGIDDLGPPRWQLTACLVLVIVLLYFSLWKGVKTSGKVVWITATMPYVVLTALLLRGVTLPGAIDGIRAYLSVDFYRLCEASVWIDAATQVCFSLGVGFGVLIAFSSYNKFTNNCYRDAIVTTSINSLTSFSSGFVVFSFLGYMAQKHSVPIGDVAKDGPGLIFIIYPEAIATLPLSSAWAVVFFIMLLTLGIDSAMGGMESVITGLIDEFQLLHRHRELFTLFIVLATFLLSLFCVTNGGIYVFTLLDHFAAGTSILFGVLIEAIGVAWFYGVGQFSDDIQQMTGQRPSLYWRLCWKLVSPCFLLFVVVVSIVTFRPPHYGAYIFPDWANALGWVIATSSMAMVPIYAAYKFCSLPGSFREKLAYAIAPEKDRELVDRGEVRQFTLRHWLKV
# From the text: (§2) Therefore, there is no direct interaction by 1-homoarginine-d-amphetamine dihydrochloride with primary targets critical for the pharmacological effects of d-amphetamine.
# α2-adrenergic receptor [3] = experiment: general side-effect profile panel (receptors, transporters, ion channels, enzymes); assay type: binding
# Protocol: as §1
# [4] = target: human recombinant norepinephrine transporter (Homo sapiens, UniProt P23975); experiment: in vitro radioligand binding study, norepinephrine transporter; settings: intact prodrug, up to 10 μM
# Sequence of human recombinant norepinephrine transporter (P23975 whole entry): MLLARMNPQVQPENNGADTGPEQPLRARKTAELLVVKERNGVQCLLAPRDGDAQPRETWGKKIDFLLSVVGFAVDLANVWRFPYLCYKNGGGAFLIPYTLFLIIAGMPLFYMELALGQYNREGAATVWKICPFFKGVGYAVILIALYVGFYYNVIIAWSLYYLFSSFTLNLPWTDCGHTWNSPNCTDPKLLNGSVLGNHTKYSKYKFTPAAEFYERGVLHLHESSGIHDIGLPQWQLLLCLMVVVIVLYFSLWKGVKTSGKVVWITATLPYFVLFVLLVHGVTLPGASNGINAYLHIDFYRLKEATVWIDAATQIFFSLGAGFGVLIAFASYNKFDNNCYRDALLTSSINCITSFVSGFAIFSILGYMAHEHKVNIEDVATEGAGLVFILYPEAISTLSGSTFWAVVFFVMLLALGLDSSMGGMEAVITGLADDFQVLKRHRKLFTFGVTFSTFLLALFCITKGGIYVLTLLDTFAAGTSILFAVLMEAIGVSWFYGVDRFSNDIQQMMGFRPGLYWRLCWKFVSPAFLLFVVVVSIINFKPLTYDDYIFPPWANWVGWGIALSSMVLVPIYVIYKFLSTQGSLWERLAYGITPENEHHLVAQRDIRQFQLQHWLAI
# From the text: as §2
# rats = experiment: motor activity in rats after PO, IV or IN administration; assay type: in vivo; settings: rat; for increase in activity: IV; for activity levels compared to controls: single IN dose
# Protocol: The pharmacodynamic properties of 1-homoarginine-d-amphetamine dihydrochloride in rats were evaluated and compared to lisdexamfetamine dimesylate and vehicle control after oral (PO), intravenous (IV) and intranasal (IN) administration.
# The activity levels of rats after a single IN dose of 1-homoarginine-d-amphetamine dihydrochloride (5.25 mg/kg) was not increased when compared to controls.
Molecule,likelihood of side-effects related to any of the common enzymes/receptors (α2-adrenergic receptor [1]),activity at the dopamine transporter site [2],activity at the α2-adrenergic receptor (initial results) (α2-adrenergic receptor [3]),activity at the norepinephrine transporter site [4],increase in activity (rats; 5.25 mg/kg),"motor activity compared to the vehicle control group (rats; PO, 4.37 mg/kg)","activity levels versus lisdexamfetamine (4.21 mg/kg) comparator group (rats; PO, 4.37 mg/kg, initial three hours of the study)",activity levels compared to controls (rats; 5.25 mg/kg),increase in activity (rats; 5.05 mg/kg),activity levels compared to controls (rats; 5.05 mg/kg)
C[C@@H](Cc1ccccc1)NC(=O)[C@@H](N)CCCCNC(=N)N.Cl [1-homoarginine-d-amphetamine dihydrochloride],unlikely,no significant activity,some,no significant activity,approximately 15%,induced an increase in motor activity,in general lower,not increased,,
lisdexamfetamine dimesylate [reference compound],,,,,,,,,60%,A similar result
